{"source": "patent EP0982027A1", "about": "“Taxoid derivatives for treating abnormal cell proliferation of the brain” (RHONE-POULENC RORER S.A., priority 1998, dated 2000)", "assay": "in vivo", "set-up": "species or system female C3H/HeN mice", "conditions": "mouse; for concentration at 6 h: 6h after dose; for concentration at 8 h: 8h after dose; for concentration at 14 h: 14h after dose; for concentration at 24 h: 24 h after dose; for concentration at 48 h: 48 h after dose; for concentration at 5 min: 5 min after dose; for concentration at 0.25 h: 15 min after dose; for concentration at 0.5 h: 0.5h after dose; for concentration at 0.75 h: 0.75h after dose; for concentration at 1 h: 1h after dose; for Vd: read-out: Vdss; for AUC(0-inf): mean level data", "description": "Groups of female C3H/HeN mice received the product by the intravenous route as a bolus at a dose level of 40 mg.kg^-1 equivalent to 120 mg.m^-2. Blood and brain samples were obtained from all dosed animals sacrificed at intervals up to 72 hours post dose. Brain and corresponding plasma samples have been assayed for product Ia content by an LC-MS/MS assay.\n• Formulation: 2.25 mg.ml^-1 solution containing 5 % Polysorbate 80, 5 % ethanol and 90 % of an aqueous 5 % glucose solution. […]\n• Sampling : Blood by cardiac puncture and liver and brain by dissection after CO2 sacrifice • Sample Times : at 2, 5, 15, 30, 45 minutes, 1, 2, 4, 6, 8, 14, 24, 48 and 72 hours post dose.\nWhole blood was collected into heparinised tubes and corresponding plasma samples were obtained by centrifugation and frozen immediately at -20°C. Tissues were blotted, weighed and frozen immediately at -20°C. All samples were dispatched frozen for analysis. Upon receipt, samples were stored frozen at approximately -18°C pending analysis.\n• Detection: LC-MS/MS (Sciex API III plus) in turbo-ionspray mode\nThe following MS conditions were applied:\nColumn: 75 x 4.6 mm Supelcosil ABZ plus (3 µm). Mobile phase: Acetonitrile/methanol/ammonium acetate (10mM); 40/25/35 v/v/v. Flow rate : 1 ml.min^-1. Temperature : Ambient. Extraction : Plasma: Add 100 µl of acetonitrile to sample (50 µl). Vortex, centrifuge, remove supernatant, add 100 µl of mobile phase and inject 150 µl. Brain : Add 100 µl of acetonitrile to homogenised sample (100 mg of a 1:1 w/w brain with water homogenate) and vortex. Add 1ml of diethyl ether, vortex, centrifuge, remove organic layer and dry under N2. Reconstitute in 200 µl of mobile phase and inject 150 µl. Calibration standards: Plasma : Nine at concentrations of 5, 10, 20, 50, 100, 200, 300, 400 & 500 ng.ml^-1 (product Ia). Prepared by adding suitable aliquots of the product (concentrations = 0.1, 1 or 10 µg.ml^-1) in ethanol to 0.5 ml aliquots of mouse plasma. Each sample was vortexed following drug addition; a 50 µl aliquot was then removed for assay. Brain : Eleven at concentrations of 10, 20, 30, 100, 200, 300, 400, 500, 1000, 2500 & 5000 ng.g^-1 in homogenised mouse brain (1:1 w/w brain with water). Prepared by adding suitable aliquots of the product (concentrations = 1, 10 or 100 µg.ml^-1) in ethanol to 0.5, 1, 3 or 4 g of homogenised mouse brain. Each sample was vortexed following drug addition and a 100 mg aliquot was then removed for assay. Retention times: Drug; product Ia: ∼2.3 min. Extraction efficiency : Plasma : ca.58 % at 200 ng.ml^-1. Brain : ca.41 % at 500 ng.g^-1 and 39 % at 1000 ng.g^-1.\nA biexponential equation was fitted to the profiles using an interactive linear least-square algorithm as part of the SIPHAR package.\nAUC0-∞: Area under the plasma or brain concentration versus time curve from t=0 (start of infusion) to infinity. Initial T1/2: Initial (distribution) half-life. Terminal T1/2: Terminal (elimination) half-life (should be regarded as an estimate only being dependent on sampling frequency in the terminal phase and assay sensitivity). ClT: Total plasma clearance. Vdss: Volume of distribution at steady state. n.a.: Not applicable.", "key": {"[1]": {"conditions": "brain, iv, 40 mg/kg, 40 mg.kg^-1 i.v., MEAN, read-out: Brain product Ic concentration"}, "[2]": {"conditions": "brain, iv, 40 mg/kg, 40 mg.kg^-1 i.v., individual animals IV1-IV4, read-out: Brain product Ic concentration"}, "[3]": {"conditions": "plasma, iv, 40 mg/kg, 40 mg.kg^-1 i.v., MEAN, read-out: Plasma product Ic concentration"}, "[4]": {"conditions": "plasma, iv, 40 mg/kg, 40 mg.kg^-1 i.v., individual animals IV1-IV4, read-out: Plasma product Ic concentration"}, "[5]": {"conditions": "plasma, iv, 40 mg/kg, Plasma+, calculated from values ≥ l.o.d. of 4 ng.ml^-1, 40 mg.kg^-1 i.v."}}, "note": "Read-outs that look alike come from different tables or passages of the source.", "data": [{"smiles": "CO[C@H]1C(=O)[C@]2(C)[C@@H](OC)C[C@H]3OC[C@@]3(OC(C)=O)[C@H]2[C@H](OC(=O)c2ccccc2)[C@]2(O)C[C@H](OC(=O)[C@H](O)[C@@H](NC(=O)OC(C)(C)C)c3ccccc3)C(C)=C1C2(C)C", "note": "[product Ia, 4α-acetoxy-2α-benzoyloxy-5β,20-epoxy-1β-hydroxy-7β,10β-dimethoxy-9-oxo-11-taxen-13α-yl (2R,3S)-3 tert-butoxycarbonylamino-2-hydroxy-3-phenylpropionate]", "values": [{"measurement": "concentration at 4 h", "setting": "brain, iv, 40 mg/kg, 40 mg.kg^-1 i.v., 4h after dose, individual animals IV1-IV4, read-out: Brain product Ic concentration", "result": 7910, "unit": "ng/g"}, {"measurement": "concentration at 6 h", "setting": "[1]", "result": 6430, "unit": "ng/g"}, {"measurement": "concentration at 8 h", "setting": "[1]", "result": 8250, "unit": "ng/g"}, {"measurement": "concentration at 8 h", "setting": "[2]", "result": 9070, "unit": "ng/g"}, {"measurement": "concentration at 14 h", "setting": "[1]", "result": 9130, "unit": "ng/g"}, {"measurement": "concentration at 14 h", "setting": "[2]", "result": 9620, "unit": "ng/g"}, {"measurement": "concentration at 24 h", "setting": "[1]", "result": 8670, "unit": "ng/g"}, {"measurement": "concentration at 24 h", "setting": "[2]", "result": 7900, "unit": "ng/g"}, {"measurement": "concentration at 48 h", "setting": "[1]", "result": 7720, "unit": "ng/g"}, {"measurement": "concentration at 48 h", "setting": "[2]", "result": 6660, "unit": "ng/g"}, {"measurement": "concentration at 72 h", "setting": "brain, iv, 40 mg/kg, 40 mg.kg^-1 i.v., 72 h after dose, MEAN, read-out: Brain product Ic concentration", "result": 5250, "unit": "ng/g"}, {"measurement": "concentration at 72 h", "setting": "brain, iv, 40 mg/kg, 40 mg.kg^-1 i.v., 72 h after dose, individual animals IV1-IV4, read-out: Brain product Ic concentration", "result": 5900, "unit": "ng/g"}, {"measurement": "concentration at 2 min", "setting": "brain, iv, 40 mg/kg, 40 mg.kg^-1 i.v., at 2 mins, read-out: brain level at the first sampling time", "result": 7900, "unit": "ng/g"}, {"measurement": "concentration at 72 h", "setting": "brain, iv, 40 mg/kg, 40 mg.kg^-1 i.v., at 72h, read-out: brain concentration at the last sampling time", "result": 5300, "unit": "ng/g"}, {"measurement": "concentration at 2 min", "setting": "plasma, iv, 40 mg/kg, 40 mg.kg^-1 i.v., 2 min after dose, MEAN, read-out: Plasma product Ic concentration", "result": 46900, "unit": "ng/mL"}, {"measurement": "concentration at 2 min", "setting": "plasma, iv, 40 mg/kg, 40 mg.kg^-1 i.v., 2 min after dose, individual animals IV1-IV4, read-out: Plasma product Ic concentration", "result": 53000, "unit": "ng/mL"}, {"measurement": "concentration at 5 min", "setting": "[3]", "result": 34300, "unit": "ng/mL"}, {"measurement": "concentration at 5 min", "setting": "[4]", "result": 36700, "unit": "ng/mL"}, {"measurement": "concentration at 0.25 h", "setting": "[3]", "result": 20500, "unit": "ng/mL"}, {"measurement": "concentration at 0.25 h", "setting": "[4]", "result": 20500, "unit": "ng/mL"}, {"measurement": "concentration at 0.5 h", "setting": "[3]", "result": 10400, "unit": "ng/mL"}, {"measurement": "concentration at 0.5 h", "setting": "[4]", "result": 10800, "unit": "ng/mL"}, {"measurement": "concentration at 0.75 h", "setting": "[3]", "result": 9090, "unit": "ng/mL"}, {"measurement": "concentration at 0.75 h", "setting": "[4]", "result": 7130, "unit": "ng/mL"}, {"measurement": "concentration at 1 h", "setting": "[3]", "result": 6550, "unit": "ng/mL"}, {"measurement": "concentration at 1 h", "setting": "[4]", "result": 6020, "unit": "ng/mL"}, {"measurement": "concentration at 4 h", "setting": "plasma, iv, 40 mg/kg, 40 mg.kg^-1 i.v., 4h after dose, MEAN, read-out: Plasma product Ic concentration", "result": 962, "unit": "ng/mL"}, {"measurement": "concentration at 4 h", "setting": "plasma, iv, 40 mg/kg, 40 mg.kg^-1 i.v., 4h after dose, individual animals IV1-IV4, read-out: Plasma product Ic concentration", "result": 1070, "unit": "ng/mL"}, {"measurement": "concentration at 6 h", "setting": "[3]", "result": 362, "unit": "ng/mL"}, {"measurement": "concentration at 6 h", "setting": "[4]", "result": 449, "unit": "ng/mL"}, {"measurement": "concentration at 8 h", "setting": "[3]", "result": 188, "unit": "ng/mL"}, {"measurement": "concentration at 8 h", "setting": "[4]", "result": 204, "unit": "ng/mL"}, {"measurement": "concentration at 14 h", "setting": "[3]", "result": 56, "unit": "ng/mL"}, {"measurement": "concentration at 14 h", "setting": "[4]", "result": 65, "unit": "ng/mL"}, {"measurement": "concentration at 24 h", "setting": "[3]", "result": 16, "unit": "ng/mL"}, {"measurement": "concentration at 48 h", "setting": "[3]", "result": 2, "unit": "ng/mL"}, {"measurement": "concentration at 4 h", "setting": "plasma, iv, 40 mg/kg, 40 mg.kg^-1 i.v., within 4h, read-out: plasma level", "result": "< 1000", "unit": "ng/mL"}, {"measurement": "half-life", "setting": "plasma, iv, 40 mg/kg, Plasma#, calculated from values ≥ b.l.q. of 20 ng.ml^-1, 40 mg.kg^-1 i.v., read-out: Initial T1/2 (converted)", "result": 12, "unit": "min"}, {"measurement": "half-life", "setting": "plasma, iv, 40 mg/kg, Plasma#, calculated from values ≥ b.l.q. of 20 ng.ml^-1, 40 mg.kg^-1 i.v., read-out: Terminal T1/2 (converted)", "result": 120, "unit": "min"}, {"measurement": "Vd", "setting": "plasma, iv, 40 mg/kg, Plasma#, calculated from values ≥ b.l.q. of 20 ng.ml^-1, 40 mg.kg^-1 i.v.", "result": 2.4, "unit": "L/kg"}, {"measurement": "AUC(0-inf)", "setting": "[5]", "result": 30000, "unit": "ng·h/mL"}, {"measurement": "half-life", "setting": "plasma, iv, 40 mg/kg, Plasma+, calculated from values ≥ l.o.d. of 4 ng.ml^-1, 40 mg.kg^-1 i.v., read-out: Initial T1/2 (converted)", "result": 42, "unit": "min"}, {"measurement": "half-life", "setting": "plasma, iv, 40 mg/kg, Plasma+, calculated from values ≥ l.o.d. of 4 ng.ml^-1, 40 mg.kg^-1 i.v., read-out: Terminal T1/2 (converted)", "result": 372, "unit": "min"}, {"measurement": "Vd", "setting": "[5]", "result": 1.9, "unit": "L/kg"}, {"measurement": "AUC(0-inf)", "setting": "plasma, iv, 40 mg/kg, calculated from values ≥ b.l.q. of 20 ng.ml^-1, 40 mg.kg^-1 i.v.", "result": 29800, "unit": "ng·h/mL"}, {"measurement": "half-life", "setting": "plasma, iv, 40 mg/kg, plasma, 40 mg.kg^-1 i.v., read-out: initial half-life", "result": "≤ 42", "unit": "min"}, {"measurement": "levels in the brain relative to those in the plasma", "setting": "on the basis of AUC0-∞ values, 40 mg.kg^-1 i.v.", "result": "about twenty times"}, {"measurement": "concentration at 24 h", "setting": "plasma, iv, 40 mg.kg^-1 i.v., individual animals IV1-IV4, values flagged blq (below limit of accurate quantification, 20 ng.ml^-1), read-out: Plasma product Ic concentration", "result": 18, "unit": "ng/mL"}, {"measurement": "concentration at 48 h", "setting": "plasma, iv, 40 mg.kg^-1 i.v., individual animals IV1-IV4, blq = below 20 ng.ml^-1, n.d. = not detected (≤ l.o.d. of 4 ng.ml^-1), read-out: Plasma product Ic concentration", "result": 4, "unit": "ng/mL"}, {"measurement": "Cmax at 2 min", "setting": "plasma, iv, 40 mg.kg^-1 i.v., peak at 2 minutes, read-out: plasma peak level (mean)", "result": 46900, "unit": "ng/mL"}, {"measurement": "penetration of the blood brain barrier", "setting": "post-i.v. administration", "result": "readily penetrate the blood brain barrier"}]}]}
